Experimental data reported in PMC6651170, “New HSV-1 Anti-Viral 1′-Homocarbocyclic Nucleoside Analogs with an Optically Active Substituted Bicyclo[2.2.1]Heptane Fragment as a Glycoside Moiety” (Molecules, 2019).
Read-outs that look alike come from different tables or passages of the source.

Columns and labels:
[1] = test system: herpes simplex virus type 1 (HSV-1); assay: microbe, parasite or virus in culture; type: cell-based; conditions: for IC50: Human alphaherpesvirus 1, Vero, 72 h, read-out: IC50 Herpes Simplex Virus Type 1
[2] = in vitro; conditions: African green monkey
[3] = in vitro; conditions: dog
[4] = in vitro
[5] = test system: Yellow Fever Virus; assay: microbe, parasite or virus in culture; type: cell-based; conditions: Yellow fever virus, read-out: IC50 Yellow Fever Virus
[6] = test system: Influenza virus (Flu A, strain A/Puerto Rico/8/34 (H1N1)); assay: microbe, parasite or virus in culture; type: cell-based; conditions: for IC50: unidentified influenza virus, H1N1, MDCK, 48 h, read-out: IC50 Influenza Virus
[7] = in vitro; remark: listed apart in the source
[8] = test system: Enterovirus 71; assay: microbe, parasite or virus in culture; type: cell-based; conditions: Enterovirus A, read-out: IC50 Enterovirus 71
[9] = test system: human adenovirus type 5 (AdV5); assay: microbe, parasite or virus in culture; type: cell-based; conditions: Human mastadenovirus C, Vero, 72 h, read-out: IC50 Human Adenovirus Type 5
[10] = in vitro; remark: listed apart in the source
[11] = test system: Chikungunya Virus; assay: microbe, parasite or virus in culture; type: cell-based; conditions: Chikungunya virus, read-out: IC50 Chikungunya Virus
[12] = CC50 (Herpes Simplex Virus Type 1)

| Compound | IC50 [1] | CC50 [2, 12] | CC50 [3] | CC50 [4] | IC50 [5] | IC50 [6] | CC50 [7] | IC50 [8] | IC50 [9] | CC50 [10] | CC50 ([2]; CC50 (Human Adenovirus Type 5)) | IC50 [11] | activity against HSV-1 in words [1] | activity against influenza virus in words [6] |
| --- | --- | --- | --- | --- | --- | --- | --- | --- | --- | --- | --- | --- | --- | --- |
| Nc1nc2c(ncn2COCCO)c(=O)[nH]1 [Acyclovir, reference compound] | 28 ± 4 µM | > 1130 µM |  |  |  |  |  |  |  |  |  |  |  |  |
| O=c1[nH]c(=O)n(C[C@H]2[C@@H]3CC(O)[C@H]2C[C@@H]3Cl)cc1F (stereo partly drawn) [Compound 4a, 1-(((1S,2S,4S,7R)-2-Chloro-5-hydroxybicyclo[2.2.1]heptan-7-yl)methyl)-5-fluoropyrimidine-2,4(1H,3H)-dione] | > 1040 µM | > 1040 µM | > 1040 µM | > 100 µM | > 100 µM | 173 ± 21 µM | > 100 µM | > 100 µM | > 1040 µM | > 100 µM | > 1040 µM | > 100 µM |  |  |
| O=c1ccn(C[C@@H]2[C@@H]3C[C@H](Cl)[C@H]2C[C@H]3O)c(=O)[nH]1 [Compound 4b, 1-(((1S,2S,4S,5R,7R)-2-Chloro-5-hydroxybicyclo[2.2.1]heptan-7-yl)methyl)pyrimidine-2,4(1H,3H)-dione] | 705 ± 81 µM | 1110 µM | > 1110 µM | > 100 µM | > 100 µM | 369 ± 26 µM | > 100 µM | > 100 µM | > 1110 µM | > 100 µM | > 1110 µM | > 100 µM |  |  |
| Cc1cn(C[C@H]2[C@@H]3CC(O)[C@H]2C[C@@H]3Cl)c(=O)[nH]c1=O (stereo partly drawn) [Compound 4c, 1-(((1S,2S,4S,7R)-2-Chloro-5-hydroxybicyclo[2.2.1]heptan-7-yl)methyl)-5-methylpyrimidine-2,4(1H,3H)-dione] | > 1050 µM | > 1050 µM | > 1050 µM | > 100 µM | > 100 µM | > 1050 µM | > 100 µM | > 100 µM | > 1050 µM | > 100 µM | > 1050 µM | > 100 µM |  |  |
| Nc1ccn(C[C@H]2[C@@H]3CC(O)[C@H]2C[C@@H]3Cl)c(=O)n1 (stereo partly drawn) [Compound 4d, 4-Amino-1-(((1S,2S,4S,7R)-2-chloro-5-hydroxybicyclo[2.2.1]heptan-7-yl)methyl)pyrimidin-2(1H)-one] | 727 ± 77 µM | > 1110 µM | > 1110 µM | > 100 µM | > 100 µM | 102 ± 12 µM | > 100 µM | > 100 µM | > 1110 µM | > 100 µM | > 1110 µM | > 100 µM | ineffective against HSV-1 | active against influenza virus |
| OC1C[C@H]2[C@H](Cn3cnc4c(Cl)ncnc43)[C@@H]1C[C@@H]2Cl (stereo partly drawn) [Compound 5, (1S,4S,5S,7R)-5-Chloro-7-((6-chloro-9H-purin-9-yl)methyl)bicyclo[2.2.1]heptan-2-ol] | 69 ± 9 µM | > 830 µM | > 958 µM | > 100 µM | > 100 µM | 254 ± 14 µM | > 100 µM | > 100 µM | > 958 µM | > 100 µM | > 958 µM | > 100 µM | active against herpes |  |
| Nc1ncnc2c1ncn2C[C@H]1[C@@H]2CC(O)[C@H]1C[C@@H]2Cl (stereo partly drawn) [Compound 6a, (1S,4S,5S,7R)-7-((6-Amino-9H-purin-9-yl)methyl)-5-chlorobicyclo[2.2.1]heptan-2-ol] | 102 ± 11 µM | 975 ± 64 µM | > 1020 µM | > 100 µM | > 100 µM | 328 ± 29 µM | > 100 µM | 71 µM | > 340 µM | > 100 µM | 977 ± 103 µM | > 100 µM |  |  |
| CCOC(=O)C1=C[C@@H](OC(CC)CC)[C@H](NC(C)=O)[C@@H](N)C1 [Oseltamivir, reference compound] |  |  | > 100 µM |  |  | 0.3 ± 0.1 µM |  |  |  |  |  |  |  |  |
